Data as given in US20260048075A1, “Inhibition of TCF4/ITF2 in the Treatment of Cancer” (VIB VZW, priority 2022, published 2026).
Where two headings read alike, the source gives them in different places.

Legend:
[1] = test system: MM029 cells; assay: Proliferation assay (IncuCyte cell confluency); type: cell-based, human; conditions: ARV-771 300 nM with dabrafenib 50 nM, trametinib 10 nM, FIG. 9
Procedure: Roughly 400 MM029 cells per well were plated in a 96-well plate and treated with ARV-771 300 nM and/or Dabrafenib 50 nM+Trametinib 10 nM after 24 hours. Cells were imaged using the IncuCyte ZOOM System (Essen Bioscience) and automated cell confluency measurements were made using images taken at 2 hour intervals, for the duration of the experiments. Five technical replicates were averaged and statistical significance was assessed (paired, two-tailed Student's t-test).

[2] = test system: TCF4; assay: RT-qPCR of TCF4 expression after ARV-771; type: cell-based, human; conditions: MM057 cells; collected 48 hours after plating
Procedure: MM057 cells were plated and treated with the specified dose of ARV-771, as described above 48 hours after plating, cells were collected, resuspended in RA1 lysis buffer using the RNA NucleoSpin extraction kit (Macherey&Nagel) and processed according to manufacturer's instructions. RNA was quantified using a ThermoScientific NanoDrop 1000 and 500 to 2000 ng was reverse transcribed with a High-Capacity cDNA Reverse Transcription Kit (Life Technologies). qPCRs were run using the SensiFAST probe No-ROX kit (Bioline, Cat #BIO-86005) on a Roche Life Science LightCycler 384. Data processing with Biogazelle Qbase+3.1 software relied on normalization with a minimum of two reference genes.

[3] = test system: TCF4 locus; assay: OmniATAC-seq chromatin accessibility; type: cell-based, human; conditions: MM057 cells; ARV-771 100 nM
Procedure: Approximately […] MM057 cells were plated in a 6-well plate and treated with ARV-771 100 nM after 24 hours. Forty eight hours after plating, cells were collected. Nuclei of 50,000 cells were isolated and an Omni-assay for transposase-accessible chromatin using sequencing (OmniATAC-seq) was performed as described previously (Corces et al. 2017, Nat Methods 14:959-962). After final amplification, samples were cleaned up with MinElute (QIAGEN) and libraries were prepared using the KAPA Library Quantification Kit (supplier). Samples were sequenced on an IlluminaNextSeq 500 High Output chip. Briefly, reads were mapped to human genome (GRCh37) using STAR (2.7.1a-foss-2018a). Resulting BAMfiles were cleaned for duplicates using Picard (2.21.8-Java-1.8.0) and indexed. Mitochondrial reads were removed using SAMtools (1.9-20190828-foss-2018a) and BigWig files were created (deepTools/3.3.1-foss-2018a-Python-3.7.4). ATAC-seq peaks were identified and visualized using MACS2 peak calling (2.1.2.1-foss-2018a-Python-2.7.16) with […] BAMPE parameters. Finally, BED files were created from broadPeak files using BEDTools (2.28.0-foss-2018a).

[4] = test system: melanoma MES cells; assay: Bulk RNA sequencing after ARV-771 exposure; type: cell-based, human; conditions: 50 nM ARV-771; for antigen presentation program expression: melanoma MES cells
Procedure: Approximately 2*10^5 cells were plated in a 6-well plate. For knockdown experiments, these were transfected with the described siRNA pool 24 and 72 hours after plating and collected 24 hours after the second transfection. For inducible TCF4 experiments, cells were treated with 2 ng/ml doxycycline (Sigma-Aldrich, Cat #D9891) every 48 hours and collected 96 hours after plating. For ARV-771 experiments, cells were treated with 50 nM ARV-771 (Bioconnect, Cat #HY-100972) 24 hours after plating and collected 96 hours after plating. RNA was extracted using the RNA NucleoSpin extraction kit (Macherey&Nagel) according to the manufacturer's instructions.
The RNA integrity was monitored using Bioanalyzer analysis. 5 ng of RNA per sample was reverse-transcribed and amplified using a modified version of the SMARTseq2 protocol, previously described in Rambow et al. 2018 (Cell 174:843-855.e19). Prior to generating sequencing libraries using the NexteraXT kit (Illumina, Cat #FC-131-10), cDNA profiles were monitored using the Bioanalyzer. Sequencing was performed on a Illumina Nextseq500 platform. Differential gene expression analyses were executed using the DeSeq2 pipeline.

[5] = test system: TCF4; conditions: B cell lymphoma and BPDCN; Jain et al. 2019, Ceribelli et al. 2016; cited from earlier work

Cc1ncsc1-c1ccc([C@H](C)NC(=O)[C@@H]2C[C@@H](O)CN2C(=O)[C@@H](NC(=O)COCCCOCCNC(=O)C[C@@H]2N=C(c3ccc(Cl)cc3)c3c(sc(C)c3C)-n3c(C)nnc32)C(C)(C)C)cc1 [ARV-771]
sensitivity to BRAF- and MEK-inhibition (cell growth) [1]: increased sensitivity to BRAF- and MEK-inhibition | TCF4 expression [2]: dose-dependent decrease in TCF4 expression | chromatin accessibility upstream of the TCF4 locus [3]: decreased chromatin accessibility upstream of the TCF4 locus | expression of genes from the MES signature [4]: strongly downregulated | expression of genes from the MITF-dependent MEL signature [4]: upregulated | transcriptional changes compared with TCF4 silencing [4]: recapitulated most of the transcriptional changes observed upon TCF4 silencing | antigen presentation program expression [4]: upregulated | antigen presentation program expression ([4]; listed as ARV-711): unleashes the expression of antigen presentation machinery and HLA-genes | overall transcriptional reprogramming effect upon BET-inhibition ([4]; mesenchymal-like vs melanocytic cell lines): far more drastic in mesenchymal-like than in melanocytic cell lines | TCF4 expression [5]: decrease its expression
